# Measured values as given in patent US12304910B2, “Janus kinase (JAK) family inhibitor, preparation of same, and applications thereof” (JIANGSU VCARE PHARMATECH CO., LTD., priority 2019, dated 2025).
# Tests used:
# TYK2 = TYK2 (Homo sapiens, UniProt P29597); assay: Kinase activity test (γ33P-ATP isotopic method), TYK2; assay type: biochemical; settings: 33P-ATP 10 μM, 2 h reaction
# Method: (§1) This experiment adopted a γ^33p-ATP isotopic test method to test the inhibitory effect of a compound on kinases JAK1, JAK2, JAK3 and TYK2, and obtained a half inhibitory concentration IC50 of the compound for inhibiting activity of the kinase.
# (§2) 20 mM 4-hydroxyethylpiperazine ethanesulfonic acid buffer (Hepes, pH 7.5), 10 mM magnesium chloride (MgCl2), 1 mM ethylene glycol diethyl ether diamine tetraacetic acid (EGTA), 0.02% dodecyl polyethylene glycol ether (Brij35), 0.02 mg/ml bovine serum albumin (BSA), 0.1 mM sodium vanadate (Na3VO4), 2 mM dithiothreitol (DTT), and 1% dimethylsulfoxide (DMSO).
# (§3) A compound is dissolved with 100% DMSO to a specific concentration, and then subjected to gradient dilution by an automatic sampling device to obtain the samples to be tested with different concentrations (DMSO solutions).
# (§4) 3.1 diluting the reaction substrate with the basic reaction buffer;
# (§5) 3.2 adding the kinase into the substrate solution, and gently mixing well;
# (§6) 3.3 adding, by the automatic sampling system, the 100% DMSO diluted compounds with different concentrations into the kinase solution, and incubating for 20 min at room temperature; and
# (§7) 3.4 adding ^33p-ATP (10 μM, 10 μCi/μl) at room temperature to initiate the kinase reaction for a duration of 2 h.
# (§8) The unreacted ATP and the reaction-generated […] in the reaction were removed by an ion exchange filtering system, and then the amount of radioactivity of ^33p isotope in the substrate was detected.
# (§9) According to the amount of radioactivity, the kinase activities in the systems added with the inhibitors of different concentrations were calculated, to obtain the inhibitors' effects of the compounds of different concentrations on the kinase activity; and fitting was performed with graphpad prism to obtain the inhibitory IC50 values of the compounds.
# JAK3 = biological target: T1, JAK3 (Homo sapiens, UniProt P52333); assay: Kinase activity test (γ33P-ATP isotopic method), JAK3; assay type: biochemical; settings: 33P-ATP 10 μM, 2 h reaction
# T1 sequence (P52333 1-1124): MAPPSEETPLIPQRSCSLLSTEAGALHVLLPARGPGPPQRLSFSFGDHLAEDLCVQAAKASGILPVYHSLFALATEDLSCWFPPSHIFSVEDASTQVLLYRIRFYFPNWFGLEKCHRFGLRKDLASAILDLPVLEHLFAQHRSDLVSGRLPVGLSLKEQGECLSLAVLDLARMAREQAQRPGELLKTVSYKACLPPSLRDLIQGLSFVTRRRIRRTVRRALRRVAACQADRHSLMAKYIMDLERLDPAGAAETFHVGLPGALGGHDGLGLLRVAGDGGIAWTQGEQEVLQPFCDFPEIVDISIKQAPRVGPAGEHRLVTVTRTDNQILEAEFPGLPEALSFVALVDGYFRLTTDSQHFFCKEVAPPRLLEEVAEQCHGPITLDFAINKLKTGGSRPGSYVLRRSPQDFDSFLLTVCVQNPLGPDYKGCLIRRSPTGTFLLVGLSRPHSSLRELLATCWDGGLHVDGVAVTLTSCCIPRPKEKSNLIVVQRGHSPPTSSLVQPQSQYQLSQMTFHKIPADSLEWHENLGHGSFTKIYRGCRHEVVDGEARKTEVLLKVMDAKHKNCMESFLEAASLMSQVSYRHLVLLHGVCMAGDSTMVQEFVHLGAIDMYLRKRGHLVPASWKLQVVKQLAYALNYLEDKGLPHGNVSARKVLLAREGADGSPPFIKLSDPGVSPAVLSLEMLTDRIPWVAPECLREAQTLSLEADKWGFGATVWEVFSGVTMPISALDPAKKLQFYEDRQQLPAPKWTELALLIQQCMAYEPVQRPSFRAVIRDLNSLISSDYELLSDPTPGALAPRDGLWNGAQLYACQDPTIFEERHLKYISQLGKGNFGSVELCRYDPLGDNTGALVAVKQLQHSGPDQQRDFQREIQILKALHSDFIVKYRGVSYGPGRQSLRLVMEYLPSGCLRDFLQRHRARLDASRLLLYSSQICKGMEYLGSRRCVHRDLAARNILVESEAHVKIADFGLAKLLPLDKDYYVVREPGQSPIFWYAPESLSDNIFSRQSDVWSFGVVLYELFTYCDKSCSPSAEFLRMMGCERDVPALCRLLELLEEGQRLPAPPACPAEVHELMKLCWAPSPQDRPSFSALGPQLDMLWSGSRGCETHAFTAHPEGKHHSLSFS
# Method: as §1, §2, §3, §4, §5, §6, §7, §8, §9
# JAK1 = JAK1 (Homo sapiens, UniProt P23458); assay: Kinase activity test (γ33P-ATP isotopic method), JAK1; assay type: biochemical; settings: for IC50: 33P-ATP 10 μM, 2 h reaction; for activity in inhibiting the JAK1 kinase compared with Tofacitinib (in words): conclusion from Table 1
# Method: as §1, §2, §3, §4, §5, §6, §7, §8, §9
# JAK2 = JAK2 (Homo sapiens, UniProt O60674); assay: Kinase activity test (γ33P-ATP isotopic method), JAK2; assay type: biochemical; settings: 33P-ATP 10 μM, 2 h reaction
# Method: as §1, §2, §3, §4, §5, §6, §7, §8, §9
# [1] = Liver microsome test (metabolic stability); assay type: in vitro ADME, human; settings: for Remaining % (60 min) / half-life at 1 μmol/L / microsomal CLint at 1 μmol/L: human liver microsomes 0.5 mg/mL protein, compound 1 μmol/L, 37° C.; for half-life at 1 μmol/L / microsomal CLint at 1 μmol/L: pH 7.4; for microsomal CLint at 1 μmol/L: read-out: Clint (μL/min/mg protein)
# Method: In an incubation system with a total volume of 250 μL, an incubation solution of hum an liver microsomes containing 0.5 mg/mL protein was formulated with a 50 mmol/L PBS buffer (pH=7.4). Before the start of incubation, 2.5 μL of a 100 μmol/L compound to be tested was mixed with 197.5 μL of the above incubation buffer, pre-incubated for 5 min in a 37° C. water bath, and then added with 50 μL of a reducing coenzyme II solution (5 mmol/L) that was likewise pre-incubated for 5 min to start a reaction (in the reaction system, the protein content of liver microsomes from various species was 0.5 g/L, and the final concentration of the compound to be tested was 1 μmol/L), incubated in a 37° C. water bath with shaking, and taken out at 0, 5, 15, 30, and 60 min respectively. 600 μL of a methanol solution of mixed positive and negative internal standards with internal standards Terfenadine (positive ion internal standard, 25 ng/mL) and Tolbutamide (negative ion internal standard, 50 ng/mL) was immediately added to terminate the reaction. The incubation solution after termination was shaken for 2 min and centrifuged (4° C., 16000 r/min) for 10 min, and the supernatant was taken for LC-MS/MS detection to quantitatively analyze the remaining amount of the parent drug. (DMSO=0.1%).
# The concentration of the compound at 0 mi incubation was regarded as 100%, and the concentrations at other incubation time points were converted into the remaining percentages. The natural logarithm of the remaining percentage at each time point was linearly regressed against the incubation time, and the slope k was calculated. According to the formula T1/2=−0.693/k, the in vitro half-life was calculated. Clearance in liver microsomes (CLint (μL/min/mg protein)=Ln (2)*1000/T1/2 (min/Protein Conc (mg/ml)).
# [2] = system: DSS induced mouse ulcerative colitis model; assay: Efficacy test in DSS induced mouse ulcerative colitis model; assay type: in vivo; settings: for DAI score on day 8: once a day, mouse DSS model, DAI range 0-4
# Description: Mice of 6-7 weeks old were randomly grouped, 6 mice per group. Purified water was provided ad libitum to the mice in a negative control group, and a 2% solution of dextran sulfate sodium (DSS) was provided ad libitum to the mice in other groups, for 7 consecutive days. During the modeling, medication was given according to the groups, once a day for 7 days (the treatment groups and the mouse numbers can be adjusted according to the specific situation). Within 8-10 days later, the DSS-containing water was replaced with purified water, provided ad libitum to the mice. The normal administration continued for 3 days.
# From the first day of administration, the general conditions such as metal state, eating, drinking and activities of the mice were respectively observed every day, the mice were weighed every day, and the animal stools were collected, evaluated for their traits and subjected to the occult blood test. The disease activity index (DAI) of experimental animals within 1-10 days were comprehensively assessed.
# Scoring was performed according to the above-mentioned standards. The disease activity index (DAI) of each mouse was obtained by summing the scores of weight loss, stool trait and occult blood condition, to evaluate the disease activity. DAI=(score of weight loss+score of stool trait+score of bloody stool)/3, ranging from 0-4.
# The experimental data was processed statistically, and the data are all expressed as mean±SD or mean±SME. The SPSS13.0 software was used for statistical analysis, and the differences among the groups were compared with t test (equal variance) or t′ test (unequal variance).
# JAK2, sequence (O60674 whole entry): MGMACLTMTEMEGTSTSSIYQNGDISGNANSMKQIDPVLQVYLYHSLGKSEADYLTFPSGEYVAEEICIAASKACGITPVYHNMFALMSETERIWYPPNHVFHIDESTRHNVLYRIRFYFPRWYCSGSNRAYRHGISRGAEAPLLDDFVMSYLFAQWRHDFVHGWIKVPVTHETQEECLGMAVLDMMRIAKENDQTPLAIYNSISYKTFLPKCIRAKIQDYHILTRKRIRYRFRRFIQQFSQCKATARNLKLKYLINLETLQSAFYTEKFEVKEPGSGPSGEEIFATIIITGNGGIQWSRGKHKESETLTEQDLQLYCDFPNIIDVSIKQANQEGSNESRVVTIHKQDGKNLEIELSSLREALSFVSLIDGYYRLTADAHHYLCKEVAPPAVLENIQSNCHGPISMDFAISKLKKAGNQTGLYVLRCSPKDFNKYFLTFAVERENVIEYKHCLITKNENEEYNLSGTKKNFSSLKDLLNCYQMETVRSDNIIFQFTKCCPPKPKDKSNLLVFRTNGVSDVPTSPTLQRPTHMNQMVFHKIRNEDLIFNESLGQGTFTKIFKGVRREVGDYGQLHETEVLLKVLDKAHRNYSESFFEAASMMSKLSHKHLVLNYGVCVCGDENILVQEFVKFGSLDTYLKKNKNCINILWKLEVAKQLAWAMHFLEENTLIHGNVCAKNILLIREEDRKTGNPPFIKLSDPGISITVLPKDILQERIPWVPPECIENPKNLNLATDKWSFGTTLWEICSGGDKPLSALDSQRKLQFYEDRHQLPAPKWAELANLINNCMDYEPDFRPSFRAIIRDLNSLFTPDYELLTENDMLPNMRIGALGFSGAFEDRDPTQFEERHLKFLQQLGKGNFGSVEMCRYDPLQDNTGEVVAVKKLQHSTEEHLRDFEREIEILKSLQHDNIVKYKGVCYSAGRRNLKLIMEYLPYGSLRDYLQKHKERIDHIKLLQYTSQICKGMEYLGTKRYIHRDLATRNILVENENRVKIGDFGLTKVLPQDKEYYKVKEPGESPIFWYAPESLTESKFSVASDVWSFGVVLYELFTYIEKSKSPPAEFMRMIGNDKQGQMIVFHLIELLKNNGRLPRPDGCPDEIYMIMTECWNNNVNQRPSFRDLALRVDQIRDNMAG
# TYK2, sequence (P29597 whole entry): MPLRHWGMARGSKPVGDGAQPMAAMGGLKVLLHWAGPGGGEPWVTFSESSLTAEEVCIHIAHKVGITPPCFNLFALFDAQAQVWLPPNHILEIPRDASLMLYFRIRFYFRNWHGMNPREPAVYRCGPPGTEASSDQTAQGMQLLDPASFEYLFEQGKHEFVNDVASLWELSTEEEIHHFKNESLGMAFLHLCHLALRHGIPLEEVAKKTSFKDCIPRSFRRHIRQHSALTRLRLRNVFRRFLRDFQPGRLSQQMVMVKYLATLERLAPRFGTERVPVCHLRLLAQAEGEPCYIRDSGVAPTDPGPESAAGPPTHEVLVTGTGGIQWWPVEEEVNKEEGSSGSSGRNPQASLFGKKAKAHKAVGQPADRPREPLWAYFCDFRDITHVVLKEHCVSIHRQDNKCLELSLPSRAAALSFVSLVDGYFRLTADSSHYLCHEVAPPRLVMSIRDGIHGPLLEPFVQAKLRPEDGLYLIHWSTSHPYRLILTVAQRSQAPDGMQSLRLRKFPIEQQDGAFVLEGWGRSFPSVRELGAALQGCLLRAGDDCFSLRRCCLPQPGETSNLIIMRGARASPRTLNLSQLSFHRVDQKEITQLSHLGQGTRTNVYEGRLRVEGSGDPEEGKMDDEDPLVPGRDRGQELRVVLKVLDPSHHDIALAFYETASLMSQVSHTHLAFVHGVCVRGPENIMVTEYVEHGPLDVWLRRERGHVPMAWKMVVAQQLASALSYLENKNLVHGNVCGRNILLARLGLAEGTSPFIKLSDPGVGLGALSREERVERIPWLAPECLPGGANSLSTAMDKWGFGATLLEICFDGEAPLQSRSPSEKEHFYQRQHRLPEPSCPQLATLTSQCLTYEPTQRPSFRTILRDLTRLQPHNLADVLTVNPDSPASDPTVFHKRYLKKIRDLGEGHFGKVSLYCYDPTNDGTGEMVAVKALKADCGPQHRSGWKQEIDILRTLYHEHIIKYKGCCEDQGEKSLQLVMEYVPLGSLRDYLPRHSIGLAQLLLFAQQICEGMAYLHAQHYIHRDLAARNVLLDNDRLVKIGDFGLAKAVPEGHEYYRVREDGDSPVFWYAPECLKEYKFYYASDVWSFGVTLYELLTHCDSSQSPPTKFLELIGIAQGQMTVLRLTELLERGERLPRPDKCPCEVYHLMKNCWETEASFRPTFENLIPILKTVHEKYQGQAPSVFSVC
# JAK1, sequence (P23458 whole entry): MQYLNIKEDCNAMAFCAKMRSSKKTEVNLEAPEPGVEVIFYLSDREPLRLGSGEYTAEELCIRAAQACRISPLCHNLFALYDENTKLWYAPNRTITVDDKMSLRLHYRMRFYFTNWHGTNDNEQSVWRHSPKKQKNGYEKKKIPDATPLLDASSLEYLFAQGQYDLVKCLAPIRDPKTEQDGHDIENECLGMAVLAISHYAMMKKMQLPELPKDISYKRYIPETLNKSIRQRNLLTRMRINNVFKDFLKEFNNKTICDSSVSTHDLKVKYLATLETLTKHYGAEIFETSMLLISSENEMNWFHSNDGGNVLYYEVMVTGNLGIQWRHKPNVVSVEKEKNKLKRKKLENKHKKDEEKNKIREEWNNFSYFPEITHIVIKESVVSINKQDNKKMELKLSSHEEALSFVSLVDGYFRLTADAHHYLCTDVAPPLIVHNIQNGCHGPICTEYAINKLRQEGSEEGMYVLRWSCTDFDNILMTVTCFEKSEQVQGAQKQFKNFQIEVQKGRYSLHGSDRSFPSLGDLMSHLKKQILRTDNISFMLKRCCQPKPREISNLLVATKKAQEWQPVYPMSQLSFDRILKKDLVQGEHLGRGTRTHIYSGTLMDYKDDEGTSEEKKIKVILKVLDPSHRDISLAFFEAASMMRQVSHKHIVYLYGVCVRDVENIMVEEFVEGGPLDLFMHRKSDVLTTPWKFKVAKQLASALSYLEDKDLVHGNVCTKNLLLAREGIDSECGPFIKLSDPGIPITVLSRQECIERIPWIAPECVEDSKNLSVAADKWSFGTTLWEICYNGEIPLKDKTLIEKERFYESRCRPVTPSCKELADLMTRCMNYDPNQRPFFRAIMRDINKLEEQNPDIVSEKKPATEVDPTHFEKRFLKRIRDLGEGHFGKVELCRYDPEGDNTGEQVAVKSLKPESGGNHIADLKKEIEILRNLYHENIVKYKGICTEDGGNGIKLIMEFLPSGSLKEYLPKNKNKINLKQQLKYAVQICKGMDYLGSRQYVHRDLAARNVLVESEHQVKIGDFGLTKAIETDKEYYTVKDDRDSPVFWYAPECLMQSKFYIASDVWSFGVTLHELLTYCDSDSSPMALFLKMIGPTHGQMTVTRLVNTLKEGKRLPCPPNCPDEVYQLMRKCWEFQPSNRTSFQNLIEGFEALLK
compound,measurement,setting,value
"NC(=O)c1cnc2[nH]ccc2c1NN1CCC[C@@H](C(=O)NCC(F)(F)F)C1 [Example 3, (R)-4-(3-(2,2,2-trifluoroethylcarbamoyl)piperidine-1-amino)-1H-7-azaindole-5-carboxamide]",IC50,TYK2,9.93 nM
same,IC50,JAK3,8.69 nM
same,IC50,JAK1,0.41 nM
same,activity in inhibiting the JAK1 kinase compared with Tofacitinib (in words),JAK1,higher activity in inhibiting the JAK1 kinase than the positive drug control Tofacitinib
same,IC50,JAK2,11.6 nM
N#CCNC(=O)[C@H]1CCCN(Nc2c(C(N)=O)cnc3[nH]ccc23)C1 [Example 7],IC50,TYK2,1.98 nM
same,IC50,JAK3,0.71 nM
same,IC50,JAK1,0.39 nM
same,activity in inhibiting the JAK1 kinase compared with Tofacitinib (in words),JAK1,higher activity in inhibiting the JAK1 kinase than the positive drug control Tofacitinib
same,IC50,JAK2,1.32 nM
CC(C)(C)OC(=O)N1CC2CN(Nc3c(C(N)=O)cnc4[nH]ccc34)CC2C1 (stereo not shown) [Example 12],IC50,TYK2,19 nM
same,IC50,JAK3,5.97 nM
same,IC50,JAK1,1.1 nM
same,IC50,JAK2,16.7 nM
"C[C@@H]1CCN(C(=O)CC#N)C[C@@H]1N(C)c1ncnc2[nH]ccc12 [Tofacitinib, reference compound]",Remaining % (60 min),[1],80.7%
same,half-life at 1 μmol/L,[1],3.3 h
same,microsomal CLint at 1 μmol/L,[1],7 µL/min/mg
same,DAI score on day 8,[2]; 5 mg/kg group,3.5
"NC(=O)c1cnc2[nH]ccc2c1NN1CCC[C@H](C(=O)NCC(F)(F)F)C1 [Example 1, (S)-4-(3-(2,2,2-trifluoroethylcarbamoyl)piperidine-1-amino)-1H-7-azaindole-5-carboxamide]",Remaining % (60 min),[1],59.0%
same,metabolic stability in liver microsomes (in words),"[1]; human liver microsomes, conclusion from Table 2",excellent metabolic activity in liver
same,half-life at 1 μmol/L,[1],1.36 h
same,microsomal CLint at 1 μmol/L,[1],17 µL/min/mg
same,IC50,TYK2,3.28 nM
same,IC50,JAK3,2.7 nM
same,DAI score on day 8,[2]; 5 mg/kg group,2.8
same,DAI score on day 8,[2]; 15 mg/kg group,2
same,effect on DSS induced enteritis in mice (in words),[2]; relatively low dose,significant effect in inhibiting the DSS induced enteritis in mice
same,IC50,JAK1,0.29 nM
same,activity in inhibiting the JAK1 kinase compared with Tofacitinib (in words),JAK1,higher activity in inhibiting the JAK1 kinase than the positive drug control Tofacitinib
same,IC50,JAK2,2.26 nM
"CCCNC(=O)[C@H]1CCCN(Nc2c(C(N)=O)cnc3[nH]ccc23)C1 [Example 5, (S)-4-(3-(n-propylcarbamoyl)piperidine-1-amino)-1H-7-azaindole-5-carboxamide]",IC50,TYK2,34.7 nM
same,IC50,JAK3,15.9 nM
same,IC50,JAK1,1.19 nM
same,IC50,JAK2,54.8 nM
